Values quoted from earlier work as cited in US6375930B2, “Membrane incorporation of texaphyrins” (Board of Regents, The University of Texas System, priority 1996, dated 2002).

Key:
[1] = require hydrophobic vehicles for administration
[2] = Levy, Semin. Oncol. 1994

Row | Substance | solubility in aqueous solutions [1] | duration of cutaneous photosensitivity [2]
1 | benzoporphyrin derivative [BPD verteporfin] | insoluble | a few days
2 | porfimer sodium | – | up to 6 weeks
3 | tin purpurin | insoluble | –
